These results are taken from patent US20060051868A1, “Methods for increasing conifer somatic embryo initiation, capture, and multiplication” (priority 2001, published 2006).

Holding throughout (assay type): cell-based
Test [1] has as its system slash pine megagametophyte. The experiment in a line: Initiation frequency of embryogenic cultures from slash pine megagametophytes. The conditions noted are these: 1.0 ppm paclobutrazol in media #1369B (Media 1374); 8 weeks, dark; control 19.3. As for the experimental part:
A further representative example in conifer to show the effects of gibberellin inhibitors in a buffered media is slash pine. Three cone collections with embryos at stages 2-4 were chosen. Removed seeds were soaked in running water for […]. and then agitated in 10% liquinox containing 1.1 ml/l Tween 20 for an additional 10 min. Seeds were sterilized in a laminar flood by agitating in 20% H2O2 for 10 min. Seeds were rinsed in sterilized water for 5 cycles of 5 to 10 min. each. The sterile seeds were placed into a sterile petri dish and dissected. The dissection was performed by splitting the seed coat, removing the integuments and nucellus, and placing the megagametophyte on the test medium. Test media #1374 contains the components of media #1369B and 1.0 ppm paclobutrazol. 2 ml of the appropriate media was poured into multi-well plates sufficient for 10 replications for each genotype. The plates were then incubated in the dark for 8 weeks at 24-26° C.

Test [2] deals with Douglas-fir zygotic embryos. Briefly: Initiation frequency of embryogenic cultures from Douglas-fir zygotic embryos. The conditions noted are these: 1.0 ppm in media #121 (Media 1323); 8-9 weeks, dark; control 16.4. As for the experimental part:
Four Douglas-fir cone collections with zygotic embryos at stages 2-4 were chosen. Cones were supplied by The Timber Co. from Cottage Grove, Oregon. Seeds were removed from their cones, soaked in running water for 10 min., and agitated in 10% liquinox containing 1.1 ml/l Tween 20 for an additional 10 min. The seeds were then rinsed with running tap water for 30 min. Seeds were transferred into a laminar flow hood where they were sterilized by agitating in 20% H2O2 for 10 min. Seeds were rinsed in sterilized water for 5 cycles of 5 to 10 min. each. The sterile seeds were placed into a sterile petri dish and dissected. The dissection was performed by splitting the ovule, gently removing the dominant embryo while leaving the suspensor intact, and placing both the embryo and the connected female gametophyte on the test medium. Test medium #1323 is the same as control media #121 but contains 1.0 ppm paclobutrazol. 2 ml of the appropriate medium was poured into multi-well plates sufficient for 10 replications per cone collection. The plates were incubated in the dark for 8-9 weeks at 24-26° C. […] Four Douglas-fir cone collections with zygotic embryos at stages 2-4 were chosen. […] The initiation frequency for the four cone collections with the addition of salts, paclobutrazol, and brassinolide enclosed in a nylon bag was determined to be 38.6%. […]

In test [3] the test system is Norway Spruce embryo and female gametophyte. Briefly: Initiation frequency of embryogenic cultures from Norway Spruce seed embryos. The conditions noted are these: base media #56; MES 0.25 gm/l (Media 1362); vitamins 0.05 ppm biotin + 0.5 ppm folic acid (Media 1363); nine weeks, light; control 38.5. As for the experimental part:
Mature Norway Spruce seeds were soaked in running water for 1 hour at room temperature and then stored in water for 24 hours in a refrigerator at 4° C. The seeds were sterilized by agitation in 10% liquinox containing 1.1 ml/l Tween 20 for 10 minutes followed by a 30 minute rinse with running tap water. In a sterile laminar flow hood, the rinsed seeds were agitated in 20% H2O2 for 10 min., then again rinsed with sterile deionized water for 5 cycles of 5 to 10 min. each. The sterile Norway Spruce seeds were placed into petri dishes onto sterile moistened filter paper for dissection. Seeds were opened and the female gametophyte removed. The female gametophyte was placed on its side and further opened. The embryo was removed from the gametophyte and placed onto a test medium next to the female gametophyte. Petri dishes containing the embryo and gametophyte were covered and wrapped with Parafilm® and incubated in light at 23-24° C. for nine weeks. The control-medium used for Norway Spruce was media #56. Refer to Table 21 for a detailed listing of media components. The three test media contained combinations of buffering reagent MES and/or vitamins. […] Initiation frequency was determined to be 38.5% for the control media, while the frequency on the control medium with the addition of 0.33 ppm paclobutrazol averaged roughly 48.5%. […]

Regarding `CC(C)(C)[C@@H](O)[C@@H](Cc1ccc(Cl)cc1)n1cncn1` (racemic) [paclobutrazol], the “Initiation Frequency (%)” value in test [1] worked out at 28.5%; in test [2], 24.4%.

Regarding `O=S(=O)(O)CCN1CCOCC1` [MES, 2-(N-morpholino)-ethanesulfonic acid], the “Initiation Frequency (%)” value in test [3] is given as 40.2%.
